Positions of bridges follow the written chain, without caps; N, C: chain ends. Residues, ends and D or L forms follow the SMILES beside them.
Key:
Format in all cases: cell-based
[1] = system: Kv1.2; assay: Ion channel specificity panel: Kv1.2
From the text: (§1) Margatoxin, a peptide from scorpion venom that has been touted as a specific Kv1.3 inhibitor (Koo et al., 1997; Lin et al., 1993; Middleton et al., 2003) was also not specific.

[2] = target: T1, Kv1.1 (Mus musculus, UniProt P16388); assay: Patch-clamp block of Kv1.1 channels stably expressed in L929 cells
T1 construct: expressed in transfected cells
T1 sequence (P16388 whole entry): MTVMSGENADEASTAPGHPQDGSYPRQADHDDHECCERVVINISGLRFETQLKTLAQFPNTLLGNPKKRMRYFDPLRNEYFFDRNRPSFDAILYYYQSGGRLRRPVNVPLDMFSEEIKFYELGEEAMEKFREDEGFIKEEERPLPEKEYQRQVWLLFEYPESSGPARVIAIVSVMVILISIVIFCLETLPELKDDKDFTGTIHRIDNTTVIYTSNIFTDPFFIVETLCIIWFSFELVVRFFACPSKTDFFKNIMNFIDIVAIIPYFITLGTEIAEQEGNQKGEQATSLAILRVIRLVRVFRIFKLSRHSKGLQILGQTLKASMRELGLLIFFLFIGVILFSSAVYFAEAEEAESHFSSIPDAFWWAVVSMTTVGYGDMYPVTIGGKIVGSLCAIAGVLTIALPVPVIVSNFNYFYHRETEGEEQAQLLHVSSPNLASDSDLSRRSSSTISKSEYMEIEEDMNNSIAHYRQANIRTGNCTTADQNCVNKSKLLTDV
Method: (§2) Kds were determined from the dose-response curves shown using Microcal Origin software.

[3] = target: Kv1.5 (Homo sapiens, UniProt P22460); assay: Ion channel specificity panel: Kv1.5
Chain of Kv1.5 (P22460 whole entry): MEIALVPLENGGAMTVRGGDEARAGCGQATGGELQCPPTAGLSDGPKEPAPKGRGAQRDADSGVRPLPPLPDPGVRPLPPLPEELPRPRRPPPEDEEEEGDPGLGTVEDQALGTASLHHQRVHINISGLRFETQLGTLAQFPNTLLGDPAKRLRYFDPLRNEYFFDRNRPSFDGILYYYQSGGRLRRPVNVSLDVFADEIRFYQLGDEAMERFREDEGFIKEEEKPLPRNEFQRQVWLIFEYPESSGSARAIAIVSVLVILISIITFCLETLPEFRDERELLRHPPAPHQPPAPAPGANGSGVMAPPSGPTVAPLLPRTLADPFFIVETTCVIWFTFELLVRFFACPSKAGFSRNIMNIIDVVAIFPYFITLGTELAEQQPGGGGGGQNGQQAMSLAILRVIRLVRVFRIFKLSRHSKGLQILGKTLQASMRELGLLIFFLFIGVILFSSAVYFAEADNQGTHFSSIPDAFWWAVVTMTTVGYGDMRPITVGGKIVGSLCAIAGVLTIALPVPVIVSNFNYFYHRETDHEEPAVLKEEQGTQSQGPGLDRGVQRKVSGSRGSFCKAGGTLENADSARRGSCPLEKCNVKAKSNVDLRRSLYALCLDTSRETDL
From the text: as §1

[4] = target: Kv1.2 (UniProt P63142); assay: Ion channel specificity panel: Kv1.2; conditions: read-out: Kd on Kv1.2
From the text: as §1

[5] = target: T2, Kv1.3 (Mus musculus, UniProt P16390); assay: Patch-clamp block of Kv1.3 channels stably expressed in L929 cells; conditions: cloned channel, dose-response curves
T2 construct: expressed in transfected cells
T2 sequence (P16390 whole entry): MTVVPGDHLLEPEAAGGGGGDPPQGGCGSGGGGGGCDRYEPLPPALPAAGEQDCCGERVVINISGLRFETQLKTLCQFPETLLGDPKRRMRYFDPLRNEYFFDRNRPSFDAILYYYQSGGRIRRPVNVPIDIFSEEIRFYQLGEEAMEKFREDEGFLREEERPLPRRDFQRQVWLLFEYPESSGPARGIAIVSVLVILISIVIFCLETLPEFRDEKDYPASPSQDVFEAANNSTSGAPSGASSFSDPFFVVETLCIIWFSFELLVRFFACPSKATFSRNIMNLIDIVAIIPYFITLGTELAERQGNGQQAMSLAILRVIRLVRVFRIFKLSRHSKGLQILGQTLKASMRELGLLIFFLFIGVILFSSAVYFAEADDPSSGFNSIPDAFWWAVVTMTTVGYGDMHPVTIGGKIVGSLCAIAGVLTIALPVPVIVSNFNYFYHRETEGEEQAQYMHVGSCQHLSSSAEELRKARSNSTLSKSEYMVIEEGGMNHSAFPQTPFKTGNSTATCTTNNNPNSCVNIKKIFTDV
Method: as §2

[6] = target: Kv1.6 (Homo sapiens, UniProt P17658); assay: Ion channel specificity panel: Kv1.6
Chain of Kv1.6 (P17658 whole entry): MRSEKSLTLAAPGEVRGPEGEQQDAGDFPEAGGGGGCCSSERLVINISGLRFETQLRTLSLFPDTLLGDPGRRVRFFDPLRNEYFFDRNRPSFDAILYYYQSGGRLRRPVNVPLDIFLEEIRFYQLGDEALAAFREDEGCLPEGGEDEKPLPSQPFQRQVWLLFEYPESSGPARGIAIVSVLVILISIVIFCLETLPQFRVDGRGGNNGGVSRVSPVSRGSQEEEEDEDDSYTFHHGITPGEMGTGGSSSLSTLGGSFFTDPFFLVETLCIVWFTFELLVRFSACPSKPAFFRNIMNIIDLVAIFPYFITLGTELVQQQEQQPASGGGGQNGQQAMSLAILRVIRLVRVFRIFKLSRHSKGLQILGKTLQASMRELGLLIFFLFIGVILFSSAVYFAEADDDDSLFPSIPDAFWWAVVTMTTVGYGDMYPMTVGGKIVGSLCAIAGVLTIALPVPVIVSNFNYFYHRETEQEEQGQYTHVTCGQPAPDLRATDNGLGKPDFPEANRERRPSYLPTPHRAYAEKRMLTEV
From the text: as §1

[7] = target: Kv3.2; assay: Ion channel specificity panel: Kv3.2
From the text: as §1

Structure (SMILES) | selectivity for Kv1.3 over Kv1.2 [1] | selectivity for Kv1.3 over Kv1.1 [2] | selectivity for Kv1.3 over Kv1.5 [3] | Kd [4] | Kd [2] | Kd [5] | Kd [6] | selectivity for Kv1.3 over Kv1.6 [6] | Kd [7] | selectivity for Kv1.3 over Kv3.2 [7]
O=c1cc(-c2ccc(O)c(O)c2)oc2cc(O)cc(O)c12 [Luteolin] | no selectivity | no selectivity | no selectivity |  |  |  |  |  |  | 
CC[C@H](C)[C@H](NC(=O)[C@@H](N)[C@@H](C)O)C(=O)N[C@H](C(=O)N[C@@H](CC(N)=O)C(=O)N[C@H](C(=O)N[C@@H](CCCCN)C(=O)N[C@H]1CSSC[C@@H]2NC(=O)[C@H](CCCCN)NC(=O)[C@H](C)NC(=O)CNC(=O)[C@H](C)NC(=O)[C@H](CO)NC(=O)[C@H](CCC(N)=O)NC(=O)CNC(=O)[C@H](Cc3ccccc3)NC(=O)[C@H](CCC(N)=O)NC(=O)[C@H](C)NC(=O)[C@H](CCCCN)NC(=O)[C@@H]3CSSC[C@@H](C(=O)N[C@@H](Cc4ccc(O)cc4)C(=O)N4CCC[C@H]4C(=O)N[C@@H](Cc4c[nH]cn4)C(=O)O)NC(=O)[C@H](CCCCN)NC(=O)[C@H](CSSC[C@H](NC(=O)[C@H](CCC(N)=O)NC(=O)[C@H](CCCCN)NC(=O)[C@@H]4CCCN4C(=O)[C@H](CO)NC(=O)[C@H]([C@@H](C)O)NC1=O)C(=O)N[C@@H](CC(C)C)C(=O)N1CCC[C@H]1C(=O)N1CCC[C@H]1C(=O)N3)NC(=O)[C@H](CCCCN)NC(=O)CNC(=O)[C@H](CC(N)=O)NC(=O)[C@H](CCSC)NC2=O)C(C)C)[C@@H](C)CC [Margatoxin] (H-TIINVKCTSPKQCLPPCKAQFGQSAGAKCMNGKCKCYPH-OH; disulfide 7-29, 13-34, 17-36; N-terminus and C-terminus assumed) | 5 fold | 9 fold |  | 0.52 ± 0.001 nM | 10 ± 1 nM | 0.11 ± 0.012 nM | > 100 nM | > 1000 fold | > 100 nM | > 1000 fold
